According to ChEMBL document CHEMBL1914374, “Effect of different C3-aryl substituents on the antioxidant activity of 4-hydroxycoumarin derivatives” (Bioorg Med Chem, 2011):

Experiments:
Type in all cases: functional
[1] = test system: Radical scavenging activity; assay: Antioxidant activity assessed as DPPH free radical scavenging activity after 10 mins by UV-Vis spectrophotometric analysis
[2] = Antioxidant activity assessed as trolox equivalents of ABTS radical scavenging activity by TEAC assay
[3] = Antioxidant activity in soybean lipoxygenase-induced beta-carotene-linoleic acid co-oxidation assessed as inhibition of beta-carotene bleaching after 10 mins relative to control; set-up: scale not given: the % may be the effect or the level left

Structure (SMILES)	EC50 [1]	Activity [2]	Activity [3]
O=c1oc2ccccc2c(O)c1-c1cccc2ccccc12	6.41 mM	56.8 µmolequiv/g	4.26 %/mmol
O=c1oc2ccccc2c(O)c1-c1ccccc1	4.19 mM	46.6 µmolequiv/g	5.79 %/mmol
O=c1cc(O)c2ccccc2o1 [4-HYDROXYCOUMARINS]	3.8 mM	186 µmolequiv/g	2.07 %/mmol
O=c1oc2ccccc2c(O)c1-c1ccccc1Cl	4.14 mM	50 µmolequiv/g	

The remaining molecules from weak to strong by EC50 [1], led by results:

EC50 [1]	Structure (SMILES)	Activity [2]	Activity [3]
8.9 mM	Cc1cc(=O)oc2cc(O)ccc12 [HYMECROMONE]	54.8 µmolequiv/g	< 0.5 %/mmol
4.15 mM	O=c1oc2ccccc2c(O)c1-c1ccc(Cl)cc1	50 µmolequiv/g	5.94 %/mmol
1.92 mM	COc1ccccc1-c1c(O)c2ccccc2oc1=O	567 µmolequiv/g	25.5 %/mmol
0.54 mM	COc1ccc(-c2c(O)c3ccccc3oc2=O)cc1	699 µmolequiv/g	23.1 %/mmol
